Row | Compound | melting point
1 | CN(C(=O)Oc1ccc(Cl)c(C(C)(C)C)c1)c1ccc(F)cc1 | 92 to 94 °C
2 | Cc1[nH]cnc1CSCCNC(=N)NCCCc1c[nH]cn1 | 128 to 131 °C
3 | CC(C)CCC1(CCc2ccccc2)CC(O)=CC(=O)O1 (centres undefined) | 99 to 100 °C
4 | Cn1nnnc1SCCCCN1C(=O)c2ccccc2C1=O | 92 to 93 °C
5 | O=c1c2c(CCCc3ccccc3)n[nH]c2c2cccnc2n1-c1ccccc1 | 202 to 204 °C
6 | CSC(=N[N+](=O)[O-])N(C)SC(Cl)(Cl)Cl | 75 to 78 °C
7 | COc1cc(OC)nc(NC(=O)NS(=O)(=O)c2cc(Br)cc3c2OS(=O)(=O)C=C3)n1 | 204 to 209 °C
8 | CCNC(=O)Nc1nc2nc(NCCCN(C)C)ncc2cc1-c1c(C)cccc1C | 64 to 70 °C
9 | CN(OCc1nc2c(N)nc3ccccc3c2n1CC(C)(C)O)C(N)=O | 206 to 207 °C
10 | CC(=O)OCCOCn1cc(C)c(=O)[nH]c1=O | 105 to 107 °C
11 | O=C1CCC(CCN2CC=C(c3ccccc3)CC2)CC1 | 94 to 96 °C
12 | CC1=Nc2ccccc2CC(c2cccs2)N1C (centres undefined) | 106 to 108 °C
13 | COC(=O)[C@@H](NC(=O)[C@H](Cc1ccccc1)NC(=O)c1ccccc1)C(C)C | 160 to 163 °C
14 | CC(C)(O)Cn1c(CO)nc2c(N)nc3cc(-c4cncc(CO)c4)cnc3c21 | 149 to 151 °C
15 | CCOC(=O)CC(=O)N1NCCCC1C(=O)OC(C)(C)C (centres undefined) | 86 to 87 °C
16 | C[Si](C)(C)C#Cc1ccc(C=CC2=CC(c3ccc(C#C[Si](C)(C)C)cc3)N(c3ccccc3)N2)cc1 (centres undefined) | 128 to 130 °C

Other lines, results leading:

Row | melting point | Compound
17 | 148 to 150 °C | CCC1(CC)OC(=S)Nc2ccc(-c3cccc(Cl)c3)cc21
18 | 154 °C | O=c1[nH]c2ccccc2n1CC1CCCN(CC(O)C2COc3ccccc3O2)C1 (centres undefined)
19 | 122 to 125 °C | Cc1cccc(-c2n[nH]cc2-c2ccc(F)c(-c3cc(F)c(S(N)(=O)=O)cc3F)c2)n1
20 | 100 °C | COc1cc2c(cc1Nc1ncc(Cl)c(Nc3ccccc3S(=O)(=O)C(C)C)n1)CCN(CC(=O)N1CCOCC1)CC2
21 | 207 to 209 °C | Cc1ccc(C2NCCc3c2[nH]c2ccccc32)cc1 (centres undefined)
22 | 124 to 125 °C | Cc1cc(OCc2ccccc2F)c2cccc(O)c2n1
23 | 187 to 189 °C | O=C(NCCCCCCCCn1ccnc1)c1cc2cc(Cl)ccc2[nH]1
24 | 124 to 125 °C | CC(C)OCCNC(=O)c1ccn2nc(-c3ccccc3)c(-c3ccc(=O)n(C(C)C)n3)c2c1
25 | 163 to 165 °C | COc1cc(S(=O)(=O)c2ccncc2)ccc1N
26 | 165 to 168 °C | CC(C)c1cccc(C(C)C)c1NC(=O)NCC1(c2cc(C(F)(F)F)cc(C(F)(F)F)c2)CCCC1
27 | 50 to 54 °C | COC=C(Oc1cccc(-c2ccc(Cl)cc2)n1)C(=O)OC
28 | 173 to 175 °C | COCCc1nc2c(N)nc3ccccc3c2n1CCCCNC(=O)c1ccc(-n2cccc2)cc1
29 | 101 to 104 °C | O=C(C=Cc1c(Cl)ccc(Cl)c1Cl)c1ccc(OC2CCCCO2)cc1 (centres undefined)
30 | 92 °C | Cc1ccc(S(=O)(=O)OCC2(F)CCN(C(=O)c3ccc(F)c(Cl)c3)CC2)cc1
31 | 118 to 120 °C | O=C(c1ccc(Cl)cc1)c1cc[nH]c1
32 | 148 to 150 °C | Cc1nc(-c2ccc(Cl)cc2C(=O)c2ccccc2)n[nH]1
33 | 141 °C | O=S(=O)(c1cccc2cccnc12)N1CCN(CCc2ccc(F)cc2)CC1
34 | 275 to 276 °C | O=C(O)c1ccc(-c2nc(-c3ccccc3)co2)cc1
35 | 179 to 180 °C | CN(C)NC(=O)c1sc(Nc2ccccc2)c2c1CCc1cnoc1-2
36 | 135 to 136 °C | CCCc1nn(-c2ccc(C(F)(F)F)cn2)cc1CCCOc1ccc(OC)c(CC(=O)O)c1
37 | 138 °C | CCCCN1CCC(CNC(=O)c2ccc(N)n3cc(C(C)C)nc23)CC1
38 | 83 to 84 °C | Nc1ccc(F)cc1Nc1ccc(F)cc1
39 | 296 °C | COc1ccc(-c2nc(C(=O)c3ccc(N)c(C(=O)O)c3)n3ccccc23)cc1
